Data reported in patent publication US7939557B2, “Vascular endothelial receptor specific inhibitors” (Nova Southeastern University, priority 2006, dated 2011).

What was measured:
[1] = test system: Human umbilical vein endothelial cell; assay: In Vitro Angiogenesis Assay (morphogenesis / tube formation on Matrigel, ECMatrix kit); format: cell-based; parameters: key to Results (In Vitro Angiogenesis Assay score): Individual cells, well separated (+++++); Cells begin to migrate and align themselves (++++); Cells begin to line but not sprouting (+++); Visible Sprouting (++); Closed polygons begins to form (+); conditions: for Results (In Vitro Angiogenesis Assay score): HUVECs on ECMatrix, 8 hours at 37° C., inhibitors 1 mM and 10 mM, higher score = greater inhibition of angiogenesis
Description: Human umbilical vein endothelial cell was purchased from Cambrex Co. (East Rutherford, N.J.) and maintained in EGM (Endothelial Growth Medium) supplemented with 2% FBS, 0.1% EGF, 0.1% Hydrocortisone, 0.1% GA-1000 and 0.4% BBE.
The morphogenesis assay on Matrigel was performed according to the manufacturer's instructions (Chemicon International). The ECMatrix™ kit consists of laminin, collagen type IV, heparan sulfate, proteoglycans, entactin and nidogen. It also contains various growth factors (TGF-β, FGF) and proteolytic enzymes (plasminogen, tPA, MMPs) that are normally produced in EHS tumors. The incubation condition was optimized for maximal tube-formation as follows: 50 μl of EC Matrix™ was suitably diluted in the ratio 9:1 with 10× diluent buffer and used for coating the 96-well plate. The coated plates were incubated at 37° C. for 1 hr. to allow the Matrix solution to solidify. In the meantime the HUVECs that were cultured for 24 hours in EGM with 2% FBS was trypsinised and re-suspended in the growth media and the cells were counted. After 1 hr. pre-incubation of the plate with Matrix solution, the HUVECs were plated at 10^4 cells/well in the absence or in the presence of different VEGFR inhibitors (1 mM and 10 mM). After 8 hours incubation at 37° C., the cell three-dimensional organization (cellular network structures) was examined under an inverted photomicroscope. Each treatment was performed in triplicate.
Activated endothelial cells form cellular networks (mesh like structures) resembling capillary tubes sprouting into the stromal space. The formation of these cellular networks is a dynamic process, which started migration and alignment of cells followed by the development of capillary tubes like structures, sprouting of new branches and finally the formation of the cellular networks. Although this in vitro angiogenesis kit is designed only as a qualitative assay, we have made an attempt to quantitate the degree of angiogenesis using a scoring method. The scoring was based on the extent of the cellular networks that were observed as follows:
Individual cells, well separated (+++++)
Cells begin to migrate and align themselves (++++)
Cells begin to line but not sprouting (+++)
Closed polygons begins to form (+).
According to our qualitative assessment, the higher the scoring the greater the efficiency of the compound for inhibiting endothelial cell mediated angiogenesis.

[2] = test system: VEGFR; assay: Assay of VEGF Receptor Tyrosine Kinase Activity (VEGFR immunoprecipitated from cell lysate, non-radioactive PTK ELISA kit); format: biochemical
From the text: Protein Tyrosine Kinases (PTKs) perform a critical role in signal transduction pathways that control cell proliferation, differentiation, metabolism, and apoptosis. Phosphorylation of proteins by PTKs is essential for the regulation of these biological mechanisms and defects in these pathways may result in a number of human diseases, including cancer. The important aspect of these enzymes in cellular regulation is accentuated by the fact that for a large number of kinases a corresponding viral oncogene product has been identified. […] CHEMICON's non-radioactive Tyrosine Kinase Activity Assay provides a simple, convenient and specific method for quantification and comparative determination of a wide range of PTKs. […]
The non-radioactive Tyrosine Kinase Activity Assay Kit consists of a synthetic Biotinylated Peptide Substrate, a Biotinylated Phosphopeptide, purified Phosphotyrosine specific monoclonal antibody conjugated to horseradish peroxidase (HRP) and other components required to perform 96 ELISA-based assays. […] The quantity of phosphate incorporated into the tyrosine kinase substrate is determined utilizing the phosphopeptide standard curve. […] The assay reaction would be terminated by the addition of 100 μl of stop solution and finally, the absorbance was measure on a standard microplate reader at 450 nm. […]

[3] = test system: MCF-7; assay: Cytotoxicity towards breast carcinoma cell line MCF-7; format: cell-based
[4] = test system: GI-101A; assay: Cytotoxicity towards breast carcinoma cell line GI-101A; format: cell-based

Compound | Results (In Vitro Angiogenesis Assay score) [1] | further results
N#Cc1ccc(C(=O)Nc2ccc3c(c2)C(=O)NC3=O)cc1 [Example 2] | +++ | –
O=C(Nc1cccc2c1C(=O)NC2=O)c1ccc(Cl)s1 [Example 6] | +++ | –
O=C(Nc1cccc2c1C(=O)NC2=O)c1ccc(S(=O)(=O)N2CCCCC2)cc1 [Example 5] | +++ | –
CC(=O)c1ccc(C(=O)Nc2ccc3c(c2)C(=O)NC3=O)cc1 [Example 3] | ++ | –
O=C(Nc1ccc2c(c1)C(=O)NC2=O)c1nc2ccccc2s1 [Example 1] | ++++ | –
O=C(Nc1cccc2c1C(=O)NC2=O)c1ccc([N+](=O)[O-])o1 [Example 4] | +++++ | IC50 ([2]; VEGFR immunoprecipitated from cell lysate, PTK assay, read-out: IC50 for inhibiting VEGFR kinase): 400 nM; inhibition of VEGFR associated tyrosine kinase activity (in words) ([2]; level of inhibition increased with concentration): able to inhibit the VEGFR associated tyrosine kinase activity; cytotoxicity towards MCF-7 [3]: produced cytotoxicity; EC50 ([1]; Homo sapiens, Endothelial cell, estimated, read-out: EC50 value for anti-antigenic effect): 25 nM; cytotoxicity towards GI-101A [4]: produced cytotoxicity
